Laboratory results as given in publication PMC12441834, “Highly Potent and Subtype-Selective Sperm-Specific Potassium Channel SLO3 Inhibitors Display High Tissue Exposure in the Murine Female Reproductive Tract” (ACS Pharmacology & Translational Science, 2025).

What was measured:
[1] = Intrinsic clearance in liver microsomes; format: in vitro ADME, human; details: for Human CLhep, % Hepatic blood flow: human liver microsomes; for CLhep predicted at 1 μM: human, liver microsomes, pH 7.4, human liver microsomes, read-out: Human CLhep (in vitro hepatic clearance from microsomal CLint)
Description: The in vitro intrinsic clearance (CLint) was investigated in commercially obtained hepatic microsomes from mouse, rat, and human donors using the substrate depletion (i.e., loss-of-parent vs time, or half-life (t 1/2) method) approach with analyte detection via liquid chromatography–tandem mass spectrometry (LC-MS/MS). For each species, mean %parent remaining values at each time point were calculated from replicate raw data (analyte:IS peak area ratios) and used to determine in vitro t 1/2 and CLint.
Experiments were carried out by using a robot-assisted liquid handler (Bravo with BenchCell, Agilent). The compound was incubated (1 μM final concentration) in buffer (100 mM potassium phosphate pH 7.4 with 3 mM MgCl2) containing hepatic microsomes (0.5 mg/mL final concentration) from each species, discretely, at 37 °C under constant orbital shaking. After 5 min (preincubation), reactions were initiated by the addition of nicotinamide adenine dinucleotide phosphate (NADPH, 1 mM final concentration). At selected time intervals (0, 3, 7, 15, 25, and 45 min) postaddition of NADPH, aliquots (50 μL) were taken and placed into a 96-shallow-well plate containing ice-cold acetonitrile (150 μL) with carbamazepine (IS, 50 nM). The plates were then centrifuged (3000 rcf at 4 °C) for 10 min. The supernatants were transferred to a new 96-shallow-well daughter plate and diluted (1:1 v/v) with water (Milli-Q filtered). The plates were then sealed for preparation for LC-MS/MS analysis (see below).
Analyte:IS peak area ratios generated by LC-MS/MS were used to construct natural log-transformed %parent remaining vs time plots (using t = 0 min post-NADPH addition sample data as the starting point set to 100%). In vitro compound t 1/2 values were calculated by using the following equation: t1/2=ln(2)/k where k is the slope from the linear regression analysis of the natural log-transformed data (using means from all replicates at each time point). Resulting t 1/2 values were then used to calculate hepatic CLint values according to the following equation and with the use of species-specific scale-up factors for liver weight (grams) per total body weight (kg): CLint=0.693/invitrot1/2×1mLincubation/0.5mgmicrosomes×45mgmicrosomes/1gramliver×garamliver/kgbodywt
^aScale-up factors used are 45 (rat) and 20 (human).
Predicted hepatic clearance (CLhep) was calculated by using the following equation: CLhep=Qh×CLint/Qh+CLint
Q h represents hepatic blood flow (mL/min/kg): 21 for humans, 70 for rats, and 90 for mouse.

[2] = In vivo IV pharmacokinetics, rat cassette; details: Sprague-Dawley, plasma, 0.2 mg/kg, male SD rats, 0.2 mpk IV; for Vd: read-out: Vss; for clearance: read-out: rat in vivo CLp
Description: In-life phase–Compounds were formulated in 12% ethanol, 48% PEG400, and 40% DMSO (v/v/v) at a concentration of 1 mg/mL and administered as a single 0.2 mg/kg IV dose (1 mL/kg) to male, Sprague–Dawley rats (n = 1; 342 g body weight) via injection into a surgically implanted jugular vein catheter. Blood samples were collected serially from a surgically implanted carotid artery catheter in each animal over multiple postadministration time points (0.033, 0.117, 0.25, 0.5, 1, 2, 4, 7, and 24 h) into chilled, K2EDTA anticoagulant-fortified tubes and immediately placed on wet ice. The blood samples were then centrifuged (1700 rcf, 5 min, 4 °C) in order to obtain plasma samples, which were stored at −80 °C until analysis by LC-MS/MS. VU6032735 was also dosed IV in C57Bl6 mice at 5 mg/kg IV to determine mouse PK. Formulation and experimental design were identical to those used for rats except that whole blood was used for analysis.
Plasma samples from the in-life phase of the study were thawed at ambient temperature (benchtop), and then, aliquots (20 μL per sample) were transferred to a 96-shallow-well (V-bottom) plate. Matrix-matched quality control (QC) samples and a standard curve of the compound (1 mg/mL DMSO stock solution) were prepared in blank rat plasma (K2EDTA-treated) via serial dilution and transferred (20 μL each) to the plate along with multiple blank plasma and tissue homogenate samples. Acetonitrile (120 μL) containing IS (10 nM carbamazepine) was added to each well of the plate to precipitate the protein. The plate was then centrifuged (4000 rcf, 5 min, ambient temperature), and the resulting supernatants (60 μL each) were transferred to a new 96-shallow-well (V-bottom) plate containing an equal volume (60 μL per well) of water (Milli-Q purified). The plate was then sealed for LC-MS/MS analysis.
Samples were analyzed via electrospray ionization (ESI) LC-MS/MS on an AB Sciex 4500 (Foster City, CA) triple-quadrupole instrument that was coupled with an Agilent 1290 Infinity Binary Pump and multisampler (Santa Clara, CA) and concentrations (ng/mL or ng/g) were determined using a matrix-matched 10-point standard curve and then converted to nM concentrations. Quantitation of compounds was performed via AB Sciex Multiquant software using the raw analyte:IS peak area ratios. The typical detection range was 0.5 ng/mL to ≥5000 ng/mL utilizing a quadratic equation regression with 1/x² weighting. Correction for dilution of all tissue samples was performed postquantitation. The corrections for dilution in the extraction buffer employed correction factors specific to each tissue weight.

SMILES	Human CLhep, % Hepatic blood flow [1] [%]	CLhep predicted at 1 μM [1] [mL/min/kg]	AUC [2] [ng·h/mL]	MRT [2] [h]	half-life [2] [h]	Vd [2] [L/kg]	clearance [2] [mL/min/kg]
O=C(c1ccc(OCc2ccc(OC(F)(F)F)cc2)cc1)N1CCN(c2ccc(C(F)(F)F)cn2)CC1 [VU6032735]	23	4.8	114	2.66	2.19	4.69	29.3
Cc1cc(Cl)cc2sc(O[C@H]3CCN(C(=O)CCCS(=O)(=O)c4cccc(Br)c4)C[C@H]3F)nc12 [VU6047606]	74	> 15	83.1	2.09	1.96	5.03	40.1
Cc1cc(Cl)cc2sc(O[C@@H]3CCN(C(=O)CCCS(=O)(=O)c4cccc(Br)c4)C[C@H]3F)nc12 [VU6047607]	82	17.2	47	1.58	1.8	6.75	71

Next, values leading:

Human CLhep, % Hepatic blood flow [1] [%]	CLhep predicted at 1 μM [1] [mL/min/kg]	AUC [2] [ng·h/mL]	MRT [2] [h]	half-life [2] [h]	Vd [2] [L/kg]	clearance [2] [mL/min/kg]	SMILES
82	17.1	58.8	1.7	1.65	5.77	56.7	Cc1cc(Cl)cc2sc(O[C@@H]3CCN(C(=O)CCCS(=O)(=O)c4cccc(Br)c4)C[C@@H]3F)nc12 [VU6047608]
75	15.8	45.2	2.36	2.91	10.5	73.8	Cc1cc(Cl)cc2sc(O[C@H]3CCN(C(=O)CCCS(=O)(=O)c4cccc(Br)c4)C[C@@H]3F)nc12 [VU6047609]
